Test results published in patent US20090012051A1, “EXTERNAL PREPARATION” (KYOWA HAKKO KOGYO CO., LTD., priority 2005, published 2009).
Values after ≈ are worked out from the molar mass of the structure shown.

Assay: Solubility of Compound (I) in solvent components
Type: physicochemical

COc1ccc(C(=O)Cc2c(Cl)cncc2Cl)c2c1OC1(CCCC1)O2 [Compound (I), 7-[2-(3,5-dichloro-4-pyridyl)-1-oxoethyl]-4-methoxy-spiro[1,3-benzodioxol-2,1′-cyclopentane]]
solubility (oil or lipid, in isopropyl myristate): ~10 mg/mL (≈ 25.4 mM)
solubility (organic solvent or mixture, in benzyl alcohol): ~100 mg/mL (≈ 254 mM)
solubility (organic solvent or mixture, in propylene carbonate): ~33 mg/mL (≈ 83.7 mM)
solubility (organic solvent or mixture, in propylene glycol): ~3 mg/mL (≈ 7.61 mM)
